Experiments:
[1] = system: WSU-NHL; experiment: growth inhibition by PCI-32765, WSU-NHL; format: cell-based; settings: Homo sapiens, FL-transformed
[2] = system: Granta-519; experiment: growth inhibition by PCI-32765, Granta-519; format: cell-based; settings: Homo sapiens; Granta-519, Mantle cell
[3] = system: Jeko-1; experiment: growth inhibition by PCI-32765, Jeko-1; format: cell-based; settings: Homo sapiens; Jeko-1, Mantle cell
[4] = system: B cell lymphoma derived cell lines; experiment: growth inhibition in a subset of B cell lymphoma derived cell lines; format: cell-based; settings: Homo sapiens, read-out: GI50 values, range
[5] = system: CD19+CD5+ cells of MCL patients; experiment: flow cytometry phenotyping of PBMCs of MCL patients before (D1) and after one week (D8) of ibrutinib; format: in vivo, human
Protocol: Blood was drawn from MCL patients enrolled in PCYC-04753 or PCYC-1104 studies in the US in accordance with GCP guidelines provided by ICH and principles of the Declaration of Helsinki with informed consent and in compliance with the protocols approved by the relevant Institutional Review Board(s). The whole blood samples were drawn into sodium heparin CPT tubes (BD), mixed for 5 min then spun at 1500 rcf for 20 min at the collection sites. The samples were shipped overnight to Pharmacyclics with 36 hrs. In a laminar flow hood, the PBMCs were removed from the top layer of the tubes, washed with PBS, and frozen in 90% FBS+10% DMSO (Sigma, St Louis, Mo.) in liquid nitrogen until use.
Frozen PBMCs were thawed in a 37° C. water bath, resuspended in RPMI+10% FBS, and recovered in a 37° C., 5% CO2 incubator in 5 ml polypropylene tubes (BD-Falcon) for 2 hours before phenotyping analysis. The PBMCs were washed with PBS+2% FBS, pelleted and resuspended in PBS+2% FBS containing phenotyping surface antibodies. All staining cocktails were run in duplicate tubes. The cells were stained for 30 minutes, washed with PBS, pelleted at 1300 rpm for 5 min, then fixed in PBS+1.6% paraformaldehyde (Electron Microscopy Services, Hatfield, Pa.).
BD FACS Canto II (BD, San Jose, Calif.) was used for all flow cytometry collection. The instrument was maintained according to manufacturer's recommendations. CS&T beads (BD) are used daily for baseline and reproducibility measurements according to manufacturer's instructions. Phosphoflow assays were stained and performed as described. The above antibodies were used with BD CompBead Plus to establish compensation settings and antibody staining consistency. 10,000 CD19^+ cells were collected from each staining sample. The data was analyzed and quantified using FlowJo7.6 (Tree Star, Ashland, Oreg.).

[6] = clinical; settings: human, plasma; for AUC(0-inf): Mean (CV) AUC0-∞; for AUC(0-t): Mean AUC0-24h, steady state (Day 8)
[7] = system: Jekol and HBL1 cells; experiment: adhesion assay, anti-IgM stimulated; settings: Homo sapiens, HBL1, read-out: inhibition of anti-IgM stimulated adhesion onto fibronectin or VCAM1
[8] = system: Btk, PLCy2, Erk, JNK and Akt phosphorylation; experiment: Btk signaling in MCL cell lines after anti-IgM, CXCL12 and CXCL13 stimulation; settings: following anti-IgM, CXCL12 and CXCL13 stimulations

## C=CC(=O)N1CCC[C@@H](n2nc(-c3ccc(Oc4ccccc4)cc3)c3c(N)ncnc32)C1 [PCI-32765, (R)-1-(3-(4-amino-3-(4-phenoxyphenyl)-1H-pyrazolo[3,4-d]pyrimidin-1-yl)piperidin-1-yl)prop-2-en-1-one]
[1]
  GI50: 120 nM
[2]
  GI50: > 10000 nM
[3]
  GI50: > 10000 nM
[4]
  GI50: 100 to 5500 nM
[5]; after one week of ibrutinib treatment, p<0.05
  absolute count and percentage of CD19+CD5+ cells in the lymphocyte population: significantly increased
[5]; after treatment, p<0.05
  intracellular Ki67 expression: significantly reduced
[5]; differences not statistically significant
  pErk expression in CD20+CD5+ cells: reduced
[5]; following one week of drug treatment, p<0.05
  surface expression of CXCR4 in the CD19+CD5+ population: significantly reduced
[5]; following treatment, p<0.01
  CD38+ cells among CD19+CD5+ cells: significantly decreased
[5]; illustrative patient, after one week of treatment, before 9.29%
  CD19+CD3− population of gated lymphocytes: 63%
[5]; illustrative patient, after one week of treatment, before 84.4%
  CD19+CD5+ population: 98.8%
[6]; 1.25 mg/kg, Day 1, cohort 1, 1.25 mg/kg
  AUC(0-inf): 181 ng·h/mL
[6]; 1.25 mg/kg, Mean (CV) Tmax, Day 1, cohort 1, 1.25 mg/kg
  Tmax: 1 h
[6]; 1.25 mg/kg, cohort 1, 1.25 mg/kg
  AUC(0-t): 301 ng·h/mL
[6]; 5 mg/kg, Day 1, cohort 3, 5 mg/kg
  AUC(0-inf): 419 ng·h/mL
[6]; 5 mg/kg, Mean (CV) Tmax, Day 1, cohort 3, 5 mg/kg
  Tmax: 2.3 h
[6]; 5 mg/kg, cohort 3, 5 mg/kg
  AUC(0-t): 1580 ng·h/mL
[6]; 8.3 mg/kg, Day 1, cohort 4, 8.3 mg/kg
  AUC(0-inf): 923 ng·h/mL
[6]; 8.3 mg/kg, Day 1, cohort CD (continuous dosing), 8.3 mg/kg
  AUC(0-inf): 1030 ng·h/mL
[6]; 8.3 mg/kg, Mean (CV) Tmax, Day 1, cohort 4, 8.3 mg/kg
  Tmax: 1.8 h
[6]; 8.3 mg/kg, Mean (CV) Tmax, Day 1, cohort CD (continuous dosing), 8.3 mg/kg
  Tmax: 2.2 h
[6]; 8.3 mg/kg, cohort 4, 8.3 mg/kg
  AUC(0-t): 2330 ng·h/mL
[6]; 8.3 mg/kg, cohort CD (continuous dosing), 8.3 mg/kg
  AUC(0-t): 1540 ng·h/mL
[6]; 12.5 mg/kg, Day 1, cohort 5, 12.5 mg/kg
  AUC(0-inf): 1550 ng·h/mL
[6]; 12.5 mg/kg, Mean (CV) Tmax, Day 1, cohort 5, 12.5 mg/kg
  Tmax: 1.7 h
[6]; 12.5 mg/kg, cohort 5, 12.5 mg/kg
  AUC(0-t): 2940 ng·h/mL
[6]; 560 mg, Day 1, Fixed cohort, 560 mg fixed dose
  AUC(0-inf): 749 ng·h/mL
[6]; 560 mg, Mean (CV) Tmax, Day 1, Fixed cohort, 560 mg fixed dose
  Tmax: 1.8 h
[6]; 560 mg, Fixed cohort, 560 mg fixed dose
  AUC(0-t): 1550 ng·h/mL
[6]; […], Mean (CV) Tmax, Day 1, cohort 2, […]
  Tmax: 2.1 h
[6]; time to maximum plasma concentration (Tmax), range over dose levels
  Tmax: 1 to 2.3 h
[7]
  inhibition at 0.1 µM: 50 to 70%
[8]
  phosphorylation of Btk and downstream PLCy2, Erk, JNK and Akt: inhibited

— patent US20170266186A1, “USE OF INHIBITORS OF BRUTON'S TYROSINE KINASE (BTK)” (Pharmacyclics LLC, priority 2011, published 2017)
